Laboratory results reported in ChEMBL document CHEMBL3217682, “Discovery of highly potent antifungal triazoles by structure-based lead fusion” (2011).
Converted amounts (≈) assume the structure as drawn.

Legend:
Type in all cases: functional
Kluyveromyces marxianus [1] = assay: Antifungal activity against Candida kefyr assessed as turbidity after 24 hrs by serial dilution method
Cryptococcus neoformans = assay: Antifungal activity against Cryptococcus neoformans assessed as turbidity after 72 hrs by serial dilution method
Candida tropicalis [2] = assay: Antifungal activity against Candida tropicalis assessed as turbidity after 24 hrs by serial dilution method
Trichophyton rubrum = assay: Antifungal activity against Trichophyton rubrum assessed as turbidity after 24 to 72 hrs by serial dilution method
Candida parapsilosis [3] = assay: Antifungal activity against Candida parapsilosis assessed as turbidity after 24 hrs by serial dilution method; settings: Lodderomyces parapsilosis
Aspergillus fumigatus = assay: Antifungal activity against Aspergillus fumigatus assessed as turbidity after 7 days by serial dilution method; settings: 168 h
Candida albicans = assay: Antifungal activity against Candida albicans assessed as turbidity after 24 hrs by serial dilution method
Candida tropicalis [4] = assay: Ratio of fluconazole MIC80 to compound MIC80 for Candida tropicalis
Kluyveromyces marxianus [5] = assay: Ratio of fluconazole MIC80 to compound MIC80 for Candida kefyr
Candida parapsilosis [6] = assay: Ratio of fluconazole MIC80 to compound MIC80 for Candida parapsilosis

SMILES | MIC80 (Kluyveromyces marxianus [1]) | MIC80 (Cryptococcus neoformans) | MIC80 (Candida tropicalis [2]) | MIC80 (Trichophyton rubrum) | MIC80 (Candida parapsilosis [3]) | MIC80 (Aspergillus fumigatus) | MIC80 (Candida albicans) | Ratio (Candida tropicalis [4]) | Ratio (Kluyveromyces marxianus [5]) | Ratio (Candida parapsilosis [6])
CN(CC(O)(Cn1cncn1)c1ccc(F)cc1F)C1CCN(Cc2ccccc2)CC1 (stereo not drawn) | 2.26 µM (≈ 0.998 µg/mL) | 2.26 µM (≈ 0.998 µg/mL) | 2.26 µM (≈ 0.998 µg/mL) | 2.26 µM (≈ 0.998 µg/mL) | 0.57 µM (≈ 0.252 µg/mL) | 145 µM (≈ 64 µg/mL) | 0.57 µM (≈ 0.252 µg/mL) | – | – | –
OC(CN1CCC(OCc2ccccc2)CC1)(Cn1cncn1)c1ccc(F)cc1F (stereo not drawn) | 0.15 µM (≈ 0.0643 µg/mL) | 0.04 µM (≈ 0.0171 µg/mL) | 0.04 µM (≈ 0.0171 µg/mL) | 0.15 µM (≈ 0.0643 µg/mL) | 0.04 µM (≈ 0.0171 µg/mL) | 2.33 µM (≈ 0.998 µg/mL) | 0.01 µM (≈ 0.00428 µg/mL) | 82 | 82 | 82
OC(CN1CCC(OCc2ccccc2Cl)CC1)(Cn1cncn1)c1ccc(F)cc1F (stereo not drawn) | 0.54 µM (≈ 0.25 µg/mL) | 0.03 µM (≈ 0.0139 µg/mL) | 0.14 µM (≈ 0.0648 µg/mL) | 0.14 µM (≈ 0.0648 µg/mL) | 0.03 µM (≈ 0.0139 µg/mL) | 2.16 µM (≈ 1 µg/mL) | 0.03 µM (≈ 0.0139 µg/mL) | – | – | –
OC(CN1CCC(OCc2ccc(Cl)cc2Cl)CC1)(Cn1cncn1)c1ccc(F)cc1F (stereo not drawn) | 0.5 µM (≈ 0.249 µg/mL) | 0.03 µM (≈ 0.0149 µg/mL) | 0.13 µM (≈ 0.0647 µg/mL) | 0.13 µM (≈ 0.0647 µg/mL) | 0.03 µM (≈ 0.0149 µg/mL) | 2.01 µM (≈ 1 µg/mL) | 0.13 µM (≈ 0.0647 µg/mL) | – | – | –
OC(CN1CCC(OCc2ccc(Cl)c(Cl)c2)CC1)(Cn1cncn1)c1ccc(F)cc1F (stereo not drawn) | 0.5 µM (≈ 0.249 µg/mL) | 0.03 µM (≈ 0.0149 µg/mL) | 0.13 µM (≈ 0.0647 µg/mL) | 0.03 µM (≈ 0.0149 µg/mL) | 0.03 µM (≈ 0.0149 µg/mL) | 2.01 µM (≈ 1 µg/mL) | 0.13 µM (≈ 0.0647 µg/mL) | – | – | –
OC(CN1CCC(OCc2cccc(Cl)c2)CC1)(Cn1cncn1)c1ccc(F)cc1F (stereo not drawn) | 0.54 µM (≈ 0.25 µg/mL) | 0.03 µM (≈ 0.0139 µg/mL) | 0.14 µM (≈ 0.0648 µg/mL) | 0.03 µM (≈ 0.0139 µg/mL) | 0.03 µM (≈ 0.0139 µg/mL) | 2.16 µM (≈ 1 µg/mL) | 0.14 µM (≈ 0.0648 µg/mL) | – | – | –
N#Cc1ccc(COC2CCN(CC(O)(Cn3cncn3)c3ccc(F)cc3F)CC2)cc1 (stereo not drawn) | 0.55 µM (≈ 0.249 µg/mL) | 0.03 µM (≈ 0.0136 µg/mL) | 0.14 µM (≈ 0.0635 µg/mL) | 0.03 µM (≈ 0.0136 µg/mL) | 0.01 µM (≈ 0.00453 µg/mL) | 0.55 µM (≈ 0.249 µg/mL) | 0.03 µM (≈ 0.0136 µg/mL) | – | – | –
OC(CN1CCC(OCc2cccc(Br)c2)CC1)(Cn1cncn1)c1ccc(F)cc1F (stereo not drawn) | 0.49 µM (≈ 0.249 µg/mL) | 0.12 µM (≈ 0.0609 µg/mL) | 0.12 µM (≈ 0.0609 µg/mL) | 0.12 µM (≈ 0.0609 µg/mL) | 0.12 µM (≈ 0.0609 µg/mL) | 1.97 µM (≈ 1 µg/mL) | 0.01 µM (≈ 0.00507 µg/mL) | 82 | 82 | 82
OC(CN1CCC(OCc2ccccc2F)CC1)(Cn1cncn1)c1ccc(F)cc1F (stereo not drawn) | 0.56 µM (≈ 0.25 µg/mL) | 0.03 µM (≈ 0.0134 µg/mL) | 0.03 µM (≈ 0.0134 µg/mL) | 0.14 µM (≈ 0.0625 µg/mL) | 0.03 µM (≈ 0.0134 µg/mL) | 2.24 µM (≈ 1 µg/mL) | 0.01 µM (≈ 0.00446 µg/mL) | 82 | 82 | 82
OC(CN1CCC(OCc2ccc(F)cc2)CC1)(Cn1cncn1)c1ccc(F)cc1F (stereo not drawn) | 0.56 µM (≈ 0.25 µg/mL) | 0.03 µM (≈ 0.0134 µg/mL) | 0.03 µM (≈ 0.0134 µg/mL) | 0.03 µM (≈ 0.0134 µg/mL) | 0.03 µM (≈ 0.0134 µg/mL) | 2.24 µM (≈ 1 µg/mL) | 0.14 µM (≈ 0.0625 µg/mL) | – | – | –
CN(CCCCOc1ccccc1)CC(O)(Cn1cncn1)c1ccc(F)cc1F (stereo not drawn) | 0.6 µM (≈ 0.25 µg/mL) | 0.15 µM (≈ 0.0625 µg/mL) | 0.04 µM (≈ 0.0167 µg/mL) | 0.6 µM (≈ 0.25 µg/mL) | 0.15 µM (≈ 0.0625 µg/mL) | > 154 µM | 0.04 µM (≈ 0.0167 µg/mL) | – | – | –
OC(Cn1cncn1)(Cn1cncn1)c1ccc(F)cc1F [FLUCONAZOLE] | 3.26 µM (≈ 0.998 µg/mL) | 0.2 µM (≈ 0.0613 µg/mL) | 3.26 µM (≈ 0.998 µg/mL) | 3.26 µM (≈ 0.998 µg/mL) | 0.82 µM (≈ 0.251 µg/mL) | > 209 µM | 0.82 µM (≈ 0.251 µg/mL) | – | – | –
